According to patent US20260285850A1, “SUBSTITUTED OXAZOLIDINONES AND IMIDAZOLINONES AS HERBICIDES” (FMC CORPORATION, priority 2023, published 2026):

Key:
Assay type in all cases: in vivo
[1] = system: barnyardgrass (Echinochloa crus-galli); test: Test A preemergence soil spray, visual injury rating 0-100; conditions: 10 days
Procedure, shortened: (§1)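 Plants were grown in a loam soil-sand blend and treated with test chemical in a non-phytotoxic solvent mixture containing surfactant, either sprayed on soil preemergence or applied postemergence to 2-10 cm plants. After 10 days in a greenhouse, injury was scored visually against untreated controls, 0 meaning no effect and 100 complete control.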

[2] = system: blackgrass (Alopecurus myosuroides); test: as above; conditions: 10 days
Procedure, shortened: as §1

[3] = system: corn (Zea mays); test: as above; conditions: 10 days
Procedure, shortened: as §1

[4] = system: green foxtail (Setaria viridis); test: as above; conditions: 10 days
Procedure, shortened: as §1

[5] = system: kochia (Bassia scoparia); test: as above; conditions: 62 g ai/ha, 10 days, 0 = no effect, 100 = complete control
Procedure, shortened: as §1

[6] = system: oat, wild (wild oat, Avena fatua); test: as above; conditions: 10 days
Procedure, shortened: as §1

[7] = system: palmer (palmer amaranth, palmer pigweed, Amaranthus palmeri); test: as above; conditions: 10 days
Procedure, shortened: as §1

[8] = system: ragweed (common ragweed, Ambrosia artemisiifolia); test: as above; conditions: 10 days
Procedure, shortened: as §1

[9] = system: ryegrass, Italian (italian ryegrass, Lolium multiflorum); test: as above; conditions: 10 days
Procedure, shortened: as §1

[10] = system: soybean (Glycine max); test: as above; conditions: 10 days
Procedure, shortened: as §1

[11] = system: wheat (Triticum aestivum); test: as above; conditions: 10 days
Procedure, shortened: as §1

[12] = system: barnyardgrass (Echinochloa crus-galli); test: Test A postemergence application, visual injury rating 0-100
Procedure, shortened: as §1

[13] = system: blackgrass (Alopecurus myosuroides); test: as above
Procedure, shortened: as §1

[14] = system: corn (Zea mays); test: as above
Procedure, shortened: as §1

[15] = system: galium (catchweed bedstraw, Galium aparine); test: as above
Procedure, shortened: as §1

[16] = system: green foxtail (Setaria viridis); test: as above
Procedure, shortened: as §1

[17] = system: horseweed (Erigeron canadensis); test: as above
Procedure, shortened: as §1

[18] = system: kochia (Bassia scoparia); test: as above
Procedure, shortened: as §1

[19] = system: oat, wild (wild oat, Avena fatua); test: as above
Procedure, shortened: as §1

[20] = system: palmer (palmer amaranth, palmer pigweed, Amaranthus palmeri); test: as above
Procedure, shortened: as §1

[21] = system: ragweed (common ragweed, Ambrosia artemisiifolia); test: as above
Procedure, shortened: as §1

[22] = system: ryegrass, Italian (italian ryegrass, Lolium multiflorum); test: as above
Procedure, shortened: as §1

[23] = system: soybean (Glycine max); test: as above
Procedure, shortened: as §1

[24] = system: wheat (Triticum aestivum); test: as above
Procedure, shortened: as §1

[25] = system: barnyardgrass (Echinochloa crusgalli); test: Test B flooded paddy test, visual plant response rating 0-100; conditions: 250 g ai/ha, Flood, applied to paddy water, evaluated after 13 days
Procedure, shortened: (§2)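 Paddy-water application: test compounds went directly into water flooded 3 cm above the soil surface, with plants at 2 leaves. After a 13-day greenhouse period, responses were judged by eye relative to controls; a dash marks an untested entry.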

[26] = system: ducksalad (Heteranthera limosa); test: as above; conditions: 250 g ai/ha, Flood, applied to paddy water, evaluated after 13 days
Procedure, shortened: as §2

[27] = system: rice (Oryza sativa); test: as above; conditions: 250 g ai/ha, Flood, applied to paddy water, evaluated after 13 days
Procedure, shortened: as §2

[28] = system: sedge, umbrella (small-flower umbrella sedge, Cyperus difformis); test: as above; conditions: 250 g ai/ha, Flood, applied to paddy water, evaluated after 13 days
Procedure, shortened: as §2

[29] = 62 g ai/ha, 0 = no effect, 100 = complete control
[30] = 62 g ai/ha, postemergence, 10 days, 0 = no effect, 100 = complete control
[31] = Postemergence, 16 g ai/ha, greenhouse 10 days, 0 no effect, 100 complete control

COC(=O)C1=CCC(NC(=O)C2(C)CN(c3cc(Cl)c(F)c(Cl)c3)C(=O)O2)C1 (stereo not drawn) [Compound 129]
Barnyardgrass plant response rating ([1]; 16 g ai/ha, 0 to 100 scale): 0
Barnyardgrass plant response rating (0-100) [1, 29]: 30
Blackgrass plant response rating ([2]; 16 g ai/ha, 0 to 100 scale): 0
Blackgrass plant response rating (0-100) [2, 29]: 0
Corn plant response rating ([3]; 16 g ai/ha, 0 to 100 scale): 0
Corn plant response rating (0-100) [3, 29]: 30
Foxtail, Green plant response rating ([4]; 16 g ai/ha, 0 to 100 scale): 0
Foxtail, Green plant response rating (0-100) [4, 29]: 0
Kochia plant response rating (0-100) [5]: 0
Oat, Wild plant response rating ([6]; 16 g ai/ha, 0 to 100 scale): 0
Oat, Wild plant response rating (0-100) [6, 29]: 0
Pigweed, Palmer plant response rating ([7]; 16 g ai/ha, 0 to 100 scale): 0
Pigweed, Palmer plant response rating (0-100) [7, 29]: 20
Ragweed plant response rating ([8]; 16 g ai/ha, 0 to 100 scale): 0
Ragweed plant response rating (0-100) [8, 29]: 0
Ryegrass, Italian plant response rating ([9]; 16 g ai/ha, 0 to 100 scale): 0
Ryegrass, Italian plant response rating (0-100) [9, 29]: 40
Soybean plant response rating ([10]; 16 g ai/ha, 0 to 100 scale): 0
Soybean plant response rating (0-100) [10, 29]: 0
Wheat plant response rating ([11]; 16 g ai/ha, 0 to 100 scale): 0
Wheat plant response rating (0-100) [11, 29]: 20
Barnyardgrass plant response rating (0-100) [12, 30]: 100
Barnyardgrass plant response rating (0 to 100 scale) [12, 31]: 80
Blackgrass plant response rating (0-100) [13, 30]: 40
Blackgrass plant response rating (0 to 100 scale) [13, 31]: 20
Corn plant response rating (0-100) [14, 30]: 100
Corn plant response rating (0 to 100 scale) [14, 31]: 70
Galium plant response rating (0-100) [15, 30]: 80
Galium plant response rating (0 to 100 scale) [15, 31]: 70
Foxtail, Green plant response rating (0-100) [16, 30]: 90
Foxtail, Green plant response rating (0 to 100 scale) [16, 31]: 20
Horseweed plant response rating (0-100) [17, 30]: 60
Horseweed plant response rating (0 to 100 scale) [17, 31]: 0
Kochia plant response rating (0-100) [18, 30]: 80
Kochia plant response rating (0 to 100 scale) [18, 31]: 50
Oat, Wild plant response rating (0-100) [19, 30]: 20
Oat, Wild plant response rating (0 to 100 scale) [19, 31]: 10
Pigweed, Palmer plant response rating (0-100) [20, 30]: 70
Pigweed, Palmer plant response rating (0 to 100 scale) [20, 31]: 50
Ragweed plant response rating (0-100) [21, 30]: 30
Ragweed plant response rating (0 to 100 scale) [21, 31]: 0
Ryegrass, Italian plant response rating (0-100) [22, 30]: 60
Ryegrass, Italian plant response rating (0 to 100 scale) [22, 31]: 30
Soybean plant response rating (0-100) [23, 30]: 70
Soybean plant response rating (0 to 100 scale) [23, 31]: 20
Wheat plant response rating (0-100) [24, 30]: 80
Wheat plant response rating (0 to 100 scale) [24, 31]: 10
Plant response rating, Barnyardgrass (0 to 100 scale, 0 is no effect and 100 is complete control) [25]: 50
Plant response rating, Ducksalad (0 to 100 scale, 0 is no effect and 100 is complete control) [26]: 70
Plant response rating, Rice (0 to 100 scale, 0 is no effect and 100 is complete control) [27]: 40
Plant response rating, Sedge, Umbrella (0 to 100 scale, 0 is no effect and 100 is complete control) [28]: 90
